Measured values: patent US20120165304A1, “6,7,8,9-Tetrahydro-5H-1,4,7,10a-tetraaza-cyclohept[f]indene derivatives, pharmaceutical compositions containing these compounds, their use and processes for preparing them” (BOEHRINGER INGELHEIM INTERNATIONAL GMBH, priority 2008, published 2012)

Target: human 5-HT2C receptor (Homo sapiens, UniProt P28335, I156V/I160V/N158S)
Assay: cell-based

Chain of human 5-HT2C receptor (P28335 33-458 I156V/N158S/I160V limits assumed): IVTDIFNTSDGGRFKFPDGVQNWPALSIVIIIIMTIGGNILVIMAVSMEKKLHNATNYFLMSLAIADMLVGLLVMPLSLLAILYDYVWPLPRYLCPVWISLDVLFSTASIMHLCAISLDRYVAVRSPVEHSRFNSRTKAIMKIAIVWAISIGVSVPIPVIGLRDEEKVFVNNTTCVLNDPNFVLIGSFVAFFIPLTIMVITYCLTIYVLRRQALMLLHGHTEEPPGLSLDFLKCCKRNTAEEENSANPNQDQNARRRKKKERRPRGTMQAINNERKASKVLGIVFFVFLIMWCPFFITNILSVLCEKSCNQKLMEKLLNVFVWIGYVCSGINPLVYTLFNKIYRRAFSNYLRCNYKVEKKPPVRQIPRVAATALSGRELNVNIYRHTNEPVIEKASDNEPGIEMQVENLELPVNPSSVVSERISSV

Row | Compound | EC50
1 | CCC(C)(C)NC(=O)C1CN(c2c3c(nc4ccnn24)CCNCC3)C1 [Example 37.54] | 118 nM
2 | O=C(C1CN(c2c3c(nc4ccnn24)CCNCC3)C1)N1Cc2ccccc2C1 [Example 31.44] | 113 nM
3 | O=C(C1CN(c2c3c(nc4ccnn24)CCNCC3)C1)N1CCC(C(F)(F)F)C1 (stereo not shown) [Example 31.95] | 41 nM
4 | O=C(C1CN(c2c3c(nc4ccnn24)CCNCC3)C1)N1CCc2c(cccc2C(F)(F)F)C1 [Example 31.102] | 36 nM
5 | C[C@H](NC(=O)C1CN(c2c3c(nc4ccnn24)CCNCC3)C1)C1CCCCC1 [Example 31.189] | 315 nM
6 | CN(CCc1ccc2ccccc2c1)C(=O)C1CN(c2c3c(nc4ccnn24)CCNCC3)C1 [Example 31.71] | 366 nM
7 | CN1CCc2nc3ccnn3c(N3CC(C(=O)N4CCN(C)CC4)C3)c2CC1 [Example 36.51] | 81 nM
8 | Cc1ccc(Cl)c(OC2CN(c3c4c(nc5ccnn35)CCNCC4)C2)c1 [Example 35.29] | 114 nM
9 | O=C(C1CN(c2c3c(nc4ccnn24)CCNCC3)C1)N1CCCCCC1 [Example 31.142] | 186 nM
10 | CC1(C)CCN(C(=O)C2CN(c3c4c(nc5ccnn35)CCNCC4)C2)C1 [Example 31.53] | 8 nM
11 | Cc1csc(C2CN(c3c4c(nc5ccnn35)CCNCC4)C2)n1 [Example 11, 10-[3-(4-Methyl-thiazol-2-yl)-azetidin-1-yl]-6,7,8,9-tetrahydro-5H-1,4,7,10a-tetraaza-cyclohepta[f]indene] | 161 nM
12 | O=C(C1CN(c2c3c(nc4ccnn24)CCNCC3)C1)N1CCN(Cc2ccc(F)cc2)CC1 [Example 37.23] | 6 nM
13 | Fc1cc(OCC2CN(c3c4c(nc5ccnn35)CCNCC4)C2)ccc1Cl [Example 15.13] | 28 nM
14 | CN(Cc1nccs1)C(=O)C1CN(c2c3c(nc4ccnn24)CCNCC3)C1 [Example 31.13] | 99 nM
15 | Brc1cnn2c(N3CCC3)c3c(nc12)CCNCC3 [Example 2, 10-Azetidin-1-yl-3-bromo-6,7,8,9-tetrahydro-5H-1,4,7,10a-tetraaza-cyclohepta[f]indene] | 4 nM
16 | CN1CCc2nc3ccnn3c(N3CC(C(=O)NC4CC(C)(C)N(C)C(C)(C)C4)C3)c2CC1 [Example 36.25] | 202 nM
17 | OC1CCN(c2c3c(nc4ccnn24)CCNCC3)CC1 [Example 1.36] | 1850 nM
18 | COc1ccc(CN(C)C(=O)C2CN(c3c4c(nc5ccnn35)CCNCC4)C2)cc1 [Example 31.26] | 29 nM
19 | Fc1cccc(OC2CN(c3c4c(nc5ccnn35)CCNCC4)C2)c1 [Example 1.9] | 26 nM
20 | COc1cccc(OCC2CN(c3c4c(nc5ccnn35)CCNCC4)C2)c1 [Example 15.20] | 26 nM

Row | Compound | EC50
21 | CN1CCc2nc3ccnn3c(N3CC(C(=O)N4CCCN(C)CC4)C3)c2CC1 [Example 36.12] | 73 nM
22 | O=C(C1CN(c2c3c(nc4ccnn24)CCNCC3)C1)N1CCN(c2ccccc2F)CC1 [Example 37.40] | 12 nM
23 | Cc1cccc2c1N(C(=O)C1CN(c3c4c(nc5ccnn35)CCNCC4)C1)CC2 [Example 31.174] | 116 nM
24 | Fc1cc(Cl)ccc1OC1CN(c2c3c(nc4ccnn24)CCNCC3)C1 [Example 35.22] | 82 nM
25 | CN1CCN(C(=O)C2CN(c3c4c(nc5ccnn35)CCNCC4)C2)CC1=O [Example 37.100] | 14 nM
26 | CC1(C(=O)N2CCC3(CC2)OCc2ccccc23)CN(c2c3c(nc4ccnn24)CCNCC3)C1 [Example 32.5] | 6550 nM
27 | C#CC1CCN(C(=O)C2CN(c3c4c(nc5ccnn35)CCN(C)CC4)C2)C1 (stereo not shown) [Example 39, (3-Ethynyl-pyrrolidin-1-yl)-[1-(7-methyl-6,7,8,9-tetrahydro-5H-1,4,7,10a-tetraaza-cyclohept[f]inden-10-yl)-azetidin-3-yl]-methanone] | 78 nM
28 | COc1ccc(OC2CN(c3c4c(nc5ccnn35)CCNCC4)C2)cc1 [Example 1.10] | 96 nM
29 | O=C(NC1CCCC1)C1CN(c2c3c(nc4ccnn24)CCNCC3)C1 [Example 31.18] | 458 nM
30 | CN1CCc2nc3ccnn3c(N3CC(C(=O)N4CCN(C(=O)C5CCCC5)CC4)C3)c2CC1 [Example 36.58] | 447 nM
31 | Brc1ccccc1OC1CN(c2c3c(nc4ccnn24)CCNCC3)C1 [Example 35.7] | 67 nM
32 | Cn1c(C2CN(c3c4c(nc5ccnn35)CCNCC4)C2)nc2cc(F)ccc21 [Example 34.38] | 290 nM
33 | CC(C)(C)C1CCN(C(=O)C2CN(c3c4c(nc5ccnn35)CCNCC4)C2)CC1 [Example 31.121] | 22 nM
34 | Cc1ccc(CN(C)C(=O)C2CN(c3c4c(nc5ccnn35)CCNCC4)C2)s1 [Example 31.24] | 53 nM
35 | N#CC1CCN(C(=O)C2CN(c3c4c(nc5ccnn35)CCNCC4)C2)C1 (stereo not shown) [Example 31.159] | 32 nM
36 | O=C(C1CN(c2c3c(nc4ccnn24)CCNCC3)C1)N1CCN(C2CCOCC2)CC1 [Example 37.31] | 7 nM
37 | O=C(C1CN(c2c3c(nc4ccnn24)CCNCC3)C1)N1CCCC1 [Example 31.64] | 199 nM
38 | c1ccc2c(c1)OCCN2c1c2c(nc3ccnn13)CCNCC2 [Example 1.39] | 2580 nM
39 | CN(C)[C@H]1CC[C@H](NC(=O)C2CN(c3c4c(nc5ccnn35)CCNCC4)C2)CC1 [Example 37.98] | 25 nM
40 | CC(CC1CCCCC1)NC(=O)C1CN(c2c3c(nc4ccnn24)CCNCC3)C1 (stereo not shown) [Example 37.108] | 72 nM

Row | Compound | EC50
41 | O=C(C1CN(c2c3c(nc4ccnn24)CCNCC3)C1)N1CCCC(c2ccccc2F)C1 (stereo not shown) [Example 31.117] | 291 nM
42 | CC(C)=CCN1CCC(NC(=O)C2CN(c3c4c(nc5ccnn35)CCNCC4)C2)CC1 [Example 43, 1-(6,7,8,9-Tetrahydro-5H-1,4,7,10a-tetraaza-cyclohept[f]inden-10-yl)-azetidine-3-carboxylic acid [1-(3-methyl-but-2-enyl)-piperidin-4-yl]-amide] | 8 nM
43 | COc1cc(Cl)ccc1OC1CN(c2c3c(nc4ccnn24)CCNCC3)C1 [Example 35.21] | 75 nM
44 | CN1CCc2nc3ccnn3c(N3CC(C(=O)N4CCC(F)(F)C4)C3)c2CC1 [Example 36.30] | 117 nM
45 | CN1CCc2nc3ccnn3c(N3CC(C(=O)NC4CCC(C)(C)CC4)C3)c2CC1 [Example 36.39] | 911 nM
46 | CC(C)c1ccc(CN(C)C(=O)C2CN(c3c4c(nc5ccnn35)CCNCC4)C2)cc1 [Example 31.163] | 108 nM
47 | O=C(C1CN(c2c3c(nc4ccnn24)CCNCC3)C1)N1CCCC(c2ccccc2)(c2ccccc2)C1 [Example 31.221] | 625 nM
48 | O=C(C1CN(c2c3c(nc4ccnn24)CCNCC3)C1)N1CCCCC1 [Example 31.15] | 342 nM
49 | O=C(C1CN(c2c3c(nc4ccnn24)CCNCC3)C1)N1CCC2(CCCCC2)C1 [Example 31.48] | 38 nM
50 | O=C(C1CN(c2c3c(nc4ccnn24)CCNCC3)C1)N1CCN2CCCC2C1 (stereo not shown) [Example 37.9] | 3 nM
51 | O=C(C1CN(c2c3c(nc4ccnn24)CCNCC3)C1)N1CCCC1c1nccs1 (stereo not shown) [Example 31.52] | 199 nM
52 | O=C(C1CN(c2c3c(nc4ccnn24)CCNCC3)C1)N1CC[C@H](c2ccccc2)C1 [Example 31.224] | 45 nM
53 | CC(=O)N(C)c1ccc(OC2CN(c3c4c(nc5ccnn35)CCNCC4)C2)cc1 [Example 35.28] | 189 nM
54 | CCNC(=O)C1CN(c2c3c(nc4ccnn24)CCNCC3)C1 [Example 37.95] | 742 nM
55 | O=C(C1CN(c2c3c(nc4ccnn24)CCNCC3)C1)N1CCCC(F)(F)C1 [Example 31.201] | 24 nM
56 | c1ccc(CC2CN(c3c4c(nc5ccnn35)CCNCC4)C2)cc1 [Example 1.15] | 10 nM
57 | CC(c1ccccc1)n1c(C2CN(c3c4c(nc5ccnn35)CCNCC4)C2)nc2cc(Cl)ccc21 (stereo not shown) [Example 34.37] | 2380 nM
58 | FC(F)(F)Oc1ccccc1OC1CN(c2c3c(nc4ccnn24)CCNCC3)C1 [Example 35.18] | 636 nM
